According to ChEMBL document CHEMBL5329202, “New aryl-/heteroarylpiperazine derivatives of 1,7-dimethyl-8,9-diphenyl-4-azatricyclo[5.2.1.02,6]dec-8-ene-3,5,10-trione: Synthesis and preliminary studies of biological activities” (Bioorg Med Chem, 2023):
Activity calls are given as the source filed them. The rule behind the calls is not given here.

Tests used:
SW480 [1] = experiment: Antiproliferative activity against human SW480 cells assessed as reduction in cell number at IC50 measured after 72 hrs by trypan blue dye based assay relative to control; assay type: functional; design: scale not given: the % may be the effect or the level left
PC-3 [2] = experiment: Induction of apoptosis in human PC-3 cells assessed as late apoptotic cells at IC50 incubated for 72 hrs by Annexin V-FITC/PI staining based flow cytometric analysis (reference value: 1.7 %); assay type: functional
PC-3 [3] = experiment: Antiproliferative activity against human PC-3 cells assessed as reduction in cell viability at IC50 measured after 72 hrs by trypan blue dye based assay relative to control; assay type: functional
PC-3 [4] = experiment: Induction of apoptosis in human PC-3 cells assessed as increase in caspase-3/7 activity at IC50 incubated for 24 hrs by Glo assay relative to control; assay type: functional
[5] = target: 5-hydroxytryptamine receptor 2A (Rattus norvegicus, UniProt P14842); experiment: Displacement of [3H]ketanserin from Sprague-Dawley rat 5-HT2A receptor assessed as inhibition constant measured after 60 mins by competitive binding assay
Sequence of 5-hydroxytryptamine receptor 2A (P14842 whole entry): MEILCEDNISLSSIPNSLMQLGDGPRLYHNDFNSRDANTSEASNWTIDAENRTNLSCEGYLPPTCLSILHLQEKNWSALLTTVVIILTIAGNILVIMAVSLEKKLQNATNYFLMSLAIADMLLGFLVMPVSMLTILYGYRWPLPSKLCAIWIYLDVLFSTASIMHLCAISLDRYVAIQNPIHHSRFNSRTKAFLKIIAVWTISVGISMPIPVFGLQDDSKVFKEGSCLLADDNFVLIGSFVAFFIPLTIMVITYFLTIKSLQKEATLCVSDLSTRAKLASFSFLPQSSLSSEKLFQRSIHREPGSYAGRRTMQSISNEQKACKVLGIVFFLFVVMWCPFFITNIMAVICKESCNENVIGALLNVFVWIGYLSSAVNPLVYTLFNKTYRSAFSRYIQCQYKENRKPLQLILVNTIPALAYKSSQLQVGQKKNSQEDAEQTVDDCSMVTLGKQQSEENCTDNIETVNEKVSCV

HaCaT = experiment: Induction of apoptosis in human HaCaT cells at IC50 incubated for 72 hrs by Annexin V-FITC/PI staining based flow cytometric analysis; assay type: functional, cell-based
SW480 [6] = experiment: Induction of apoptosis in human SW480 cells assessed as necrotic cells at IC50 incubated for 72 hrs by Annexin V-FITC/PI staining based flow cytometric analysis (reference value: 0.1 %); assay type: functional
PC-3 [7] = experiment: Induction of apoptosis in human PC-3 cells assessed as necrotic cells at IC50 incubated for 72 hrs by Annexin V-FITC/PI staining based flow cytometric analysis (reference value: 3.6 %); assay type: functional
Histamine H1 receptor = Histamine H1 receptor (Rattus norvegicus, UniProt P31390); experiment: Displacement of [3H]pyrilamine from Sprague-Dawley rat H1 receptor assessed as inhibition constant measured after 30 mins by competitive binding assay
Sequence of Histamine H1 receptor (P31390 whole entry): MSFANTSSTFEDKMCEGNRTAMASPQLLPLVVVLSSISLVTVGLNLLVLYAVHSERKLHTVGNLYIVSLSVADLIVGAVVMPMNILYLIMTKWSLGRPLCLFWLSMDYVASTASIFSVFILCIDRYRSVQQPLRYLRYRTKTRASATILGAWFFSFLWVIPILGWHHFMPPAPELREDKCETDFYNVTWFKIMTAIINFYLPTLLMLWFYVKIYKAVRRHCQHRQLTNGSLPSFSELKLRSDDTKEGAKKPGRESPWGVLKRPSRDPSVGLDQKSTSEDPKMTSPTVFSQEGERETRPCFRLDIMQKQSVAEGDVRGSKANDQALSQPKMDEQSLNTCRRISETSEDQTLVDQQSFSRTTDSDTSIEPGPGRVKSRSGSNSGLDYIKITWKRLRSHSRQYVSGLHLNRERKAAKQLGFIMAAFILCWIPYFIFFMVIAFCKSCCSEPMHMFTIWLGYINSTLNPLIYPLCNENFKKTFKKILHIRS

SW480 [8] = experiment: Cytotoxicity against human SW480 cells assessed as cell growth inhibition measured after 72 hrs by MTT assay; assay type: functional, cell-based; conditions: SW480, 72 h
SW480 [9] = experiment: Antiproliferative activity against human SW480 cells assessed as reduction in cell viability at IC50 measured after 72 hrs by trypan blue dye based assay relative to control; assay type: functional
PC-3 [10] = experiment: Antiproliferative activity against human PC-3 cells assessed as reduction in cell number at IC50 measured after 72 hrs by trypan blue dye based assay relative to control; assay type: functional; design: scale not given: the % may be the effect or the level left
HCT-116 [11] = experiment: Induction of apoptosis in human HCT-116 cells assessed as early apoptotic cells at IC50 incubated for 72 hrs by Annexin V-FITC/PI staining based flow cytometric analysis (reference value: 7.8 %); assay type: functional
HCT-116 [12] = experiment: Induction of apoptosis in human HCT-116 cells assessed as viable cells at IC50 incubated for 72 hrs by Annexin V-FITC/PI staining based flow cytometric analysis (reference value: 90.5 %); assay type: functional
[13] = target: T1, 5-hydroxytryptamine receptor 1A (Rattus norvegicus) (UniProt P19327); experiment: Agonist activity at Sprague-Dawley rat hippocampal membrane 5-HT1A receptor assessed as stimulation of [35S]GTPgammaS binding by measuring maximal efficacy measured after 90 mins by scintillation counter analysis relative to control; assay type: functional, cell membranes; conditions: Hippocampus, filed as agonist
T1 sequence (whole entry): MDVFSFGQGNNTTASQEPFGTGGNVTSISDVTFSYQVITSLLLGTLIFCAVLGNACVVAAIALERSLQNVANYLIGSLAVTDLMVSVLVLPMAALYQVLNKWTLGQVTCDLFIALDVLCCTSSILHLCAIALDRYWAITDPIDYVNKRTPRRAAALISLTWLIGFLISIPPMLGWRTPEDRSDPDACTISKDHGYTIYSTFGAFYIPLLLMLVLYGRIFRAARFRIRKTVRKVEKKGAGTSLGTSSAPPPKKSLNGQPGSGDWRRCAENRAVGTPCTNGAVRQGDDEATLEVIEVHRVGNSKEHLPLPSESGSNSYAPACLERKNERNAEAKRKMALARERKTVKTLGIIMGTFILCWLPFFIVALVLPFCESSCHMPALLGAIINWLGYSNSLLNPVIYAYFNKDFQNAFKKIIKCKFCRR

PC-3 [14] = experiment: Induction of apoptosis in human PC-3 cells assessed as viable cells at IC50 incubated for 72 hrs by Annexin V-FITC/PI staining based flow cytometric analysis (reference value: 94.4 %); assay type: functional
HCT-116 [15] = experiment: Induction of apoptosis in human HCT-116 cells assessed as increase in caspase-3/7 activity at IC50 incubated for 24 hrs by Glo assay; assay type: functional, cell-based
SW480 [16] = experiment: Induction of apoptosis in human SW480 cells assessed as early apoptotic cells at IC50 incubated for 72 hrs by Annexin V-FITC/PI staining based flow cytometric analysis (reference value: […]); assay type: functional
PC-3 [17] = experiment: Induction of apoptosis in human PC-3 cells assessed as early apoptotic cells at IC50 incubated for 72 hrs by Annexin V-FITC/PI staining based flow cytometric analysis (reference value: 0.3 %); assay type: functional
[18] = Selectivity index, ratio of IC50 for cytotoxicity against human HMEC-1 cells to IC50 for cytotoxicity against human HepG2 cells; assay type: toxicity, cell-based; conditions: HMEC-1 cells and HepG2 cells, read-out: Ratio IC50
SW480 [19] = experiment: Induction of apoptosis in human SW480 cells assessed as viable cells at IC50 incubated for 72 hrs by Annexin V-FITC/PI staining based flow cytometric analysis (reference value: 97.7 %); assay type: functional
HCT-116 [20] = experiment: Antiproliferative activity against human HCT-116 cells assessed as reduction in cell number at IC50 measured after 72 hrs by trypan blue dye based assay relative to control; assay type: functional; design: scale not given: the % may be the effect or the level left
Rattus norvegicus = organism: Rattus norvegicus; experiment: Displacement of [3H]-QNB from Sprague-Dawley rat Muscarinic acetylcholine receptor assessed as inhibition constant measured after 45 mins by competitive binding assay
SW480 [21] = experiment: Induction of apoptosis in human SW480 cells assessed as late apoptotic cells at IC50 incubated for 72 hrs by Annexin V-FITC/PI staining based flow cytometric analysis (reference value: 0.8 %); assay type: functional
HCT-116 [22] = experiment: Induction of apoptosis in human HCT-116 cells assessed as increase in caspase-3/7 activity at IC50 incubated for 24 hrs by Glo assay relative to control; assay type: functional
HCT-116 [23] = experiment: Antiproliferative activity against human HCT-116 cells assessed as decrease in IL-6 level at IC50 measured after 72 hrs by ELISA assay relative to control; assay type: functional; design: scale not given: the % may be the effect or the level left
SW-620 [24] = experiment: Induction of apoptosis in human SW620 cells assessed as early apoptotic cells at IC50 incubated for 72 hrs by Annexin V-FITC/PI staining based flow cytometric analysis (reference value: 5.2 %); assay type: functional
SW-620 [25] = experiment: Antiproliferative activity against human SW620 cells assessed as reduction in cell number at IC50 measured after 72 hrs by trypan blue dye based assay relative to control; assay type: functional; design: scale not given: the % may be the effect or the level left
SW-620 [26] = experiment: Antiproliferative activity against human SW620 cells assessed as decrease in IL-6 level at IC50 measured after 72 hrs by ELISA assay relative to control; assay type: functional; design: scale not given: the % may be the effect or the level left
SW-620 [27] = experiment: Induction of apoptosis in human SW620 cells assessed as necrotic cells at IC50 incubated for 72 hrs by Annexin V-FITC/PI staining based flow cytometric analysis (reference value: 0.7 %); assay type: functional
SW-620 [28] = experiment: Antiproliferative activity against human SW620 cells assessed as reduction in cell viability at IC50 measured after 72 hrs by trypan blue dye based assay relative to control; assay type: functional

Row | Compound | Activity (SW480 [1]) [%] | Activity (PC-3 [2]) [%] | Activity (PC-3 [3]) [%] | Ki [5] [nM] | Activity (HaCaT) | Activity (SW480 [6]) [%] | Ki (Histamine H1 receptor) [nM] | IC50 (SW480 [8]) [nM] | Activity (SW480 [9]) [%] | Activity (HCT-116 [11]) [%] | Activity (HCT-116 [12]) [%] | Emax [13] [%] | Activity (SW480 [16]) [%] | selectivity ratio [18] | Activity (SW480 [19]) [%] | Activity (HCT-116 [20]) [%] | Activity (Rattus norvegicus) | Activity (SW480 [21]) [%] | Activity (HCT-116 [22]) [%] | Activity (HCT-116 [23]) [%] | further results
1 | CC12C(=O)C(C)(C(c3ccccc3)=C1c1ccccc1)C1C(=O)N(CCCCN3CCN(c4cccc(Cl)c4)CC3)C(=O)C12 (stereo not drawn) | 39 | 16.2 | 26 | 25300 | inactive | 0.1 | 80 | 8300 | 21 | 15.7 | 81.5 | 162 | 16.8 | 1.55 | 81.9 | 26 | inactive | 1.2 | – | – | Activity (PC-3 [4]): 70%; Activity (PC-3 [7]): 2.1%; Activity (PC-3 [10]): 29%; Activity (PC-3 [14]): 78.5%; Activity (HCT-116 [15]): inactive; Activity (PC-3 [17]): 3.3%
2 | CC12C(=O)C(C)(C(c3ccccc3)=C1c1ccccc1)C1C(=O)N(CCCCN3CCN(c4ncccn4)CC3)C(=O)C12 (stereo not drawn) | – | – | – | – | inactive | – | 6 | 15800 | – | 58.2 | 37.4 | 134 | – | 1.83 | – | 49 | inactive | – | 137 | 53 | –
3 | CC12C(=O)C(C)(C(c3ccccc3)=C1c1ccccc1)C1C(=O)N(CCCCN3CCN(c4ccccc4F)CC3)C(=O)C12 (stereo not drawn) | 46 | 16.2 | 26 | 300 | – | 0.1 | 7 | 7750 | 21 | 23 | 74.9 | 152 | 10.8 | 0.66 | 87.8 | 35 | inactive | 1.4 | 137 | 53 | Activity (PC-3 [4]): 127%; Activity (PC-3 [7]): 2.1%; Activity (PC-3 [10]): 27%; Activity (PC-3 [14]): 75.6%; Activity (PC-3 [17]): 6.3%
4 | CC12C(=O)C(C)(C(c3ccccc3)=C1c1ccccc1)C1C(=O)N(CCCCN3CCN(c4ccccn4)CC3)C(=O)C12 (stereo not drawn) | – | – | – | 4700 | inactive | – | 600 | 12100 | – | 12.1 | 85.5 | 168 | – | 2.51 | – | 28 | inactive | – | – | – | Activity (HCT-116 [15]): inactive
5 | CC12C(=O)C(C)(C(c3ccccc3)=C1c1ccccc1)C1C(=O)N(CCCCN3CCN(c4ccccc4Cl)CC3)C(=O)C12 (stereo not drawn) | 38 | 32.6 | 26 | 100 | inactive | 0.1 | 30 | 5290 | 21 | 36.4 | 58 | 145 | 10 | 1.6 | 89 | 29 | inactive | 1 | 137 | 53 | Activity (PC-3 [4]): 216%; Activity (SW-620 [24]): 6.1%; Activity (PC-3 [7]): 3.1%; Activity (SW-620 [25]): 27%; Activity (PC-3 [10]): 43%; Activity (SW-620 [26]): 24%; Activity (SW-620 [27]): 1.8%; Activity (PC-3 [14]): 60.1%; Activity (PC-3 [17]): 4.2%; Activity (SW-620 [28]): 23%
6 | COc1ccccc1N1CCN(CCCCN2C(=O)C3C(C2=O)C2(C)C(=O)C3(C)C(c3ccccc3)=C2c2ccccc2)CC1 (stereo not drawn) | 40 | – | – | 200 | inactive | 0.1 | 300 | 7410 | 22 | 18.4 | 79.2 | 122 | 11.1 | 1.93 | 87.1 | 44 | inactive | 1.7 | 53 | 53 | Activity (SW-620 [24]): 7.6%; Activity (SW-620 [25]): 27%; Activity (SW-620 [26]): 31%; Activity (SW-620 [27]): 1.4%; Activity (SW-620 [28]): 27%
